Source: paper PMC7238120, “Strong and Selective Inhibitory Effects of the Biflavonoid Selamariscina A against CYP2C8 and CYP2C9 Enzyme Activities in Human Liver Microsomes” (Pharmaceutics, 2020)
Where two headings read alike, the source gives them in different places.

Legend:
CYP2B6 = target: T1, CYP2B6 (Homo sapiens, UniProt P20813); assay: Inhibition of CYP2B6-catalyzed bupropion hydroxylation in pooled human liver microsomes; assay type: in vitro ADME
T1 construct: incubation mixtures containing pooled human liver microsomes (HLMs, XTreme 200, XenoTech); tissue XenoTech XTreme 200; host or cells: pooled human liver microsomes
T1 sequence (P20813 1-491): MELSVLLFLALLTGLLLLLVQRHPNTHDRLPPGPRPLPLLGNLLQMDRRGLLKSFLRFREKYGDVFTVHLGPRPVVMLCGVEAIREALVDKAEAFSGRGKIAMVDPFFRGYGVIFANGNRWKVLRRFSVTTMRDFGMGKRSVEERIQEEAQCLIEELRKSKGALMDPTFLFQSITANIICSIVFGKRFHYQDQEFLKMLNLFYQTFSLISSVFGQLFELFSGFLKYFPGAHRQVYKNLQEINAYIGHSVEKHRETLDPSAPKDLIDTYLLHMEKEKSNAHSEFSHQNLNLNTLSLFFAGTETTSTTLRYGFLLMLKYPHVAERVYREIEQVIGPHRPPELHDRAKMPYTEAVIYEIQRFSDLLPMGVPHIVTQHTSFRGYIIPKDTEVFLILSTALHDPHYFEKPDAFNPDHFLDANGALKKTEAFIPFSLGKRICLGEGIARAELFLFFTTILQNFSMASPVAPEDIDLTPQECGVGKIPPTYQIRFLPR
Method: (§1) The inhibitory potential of the five biflavonoids on the metabolism of nine P450 probe substrates was evaluated using previously developed methods with minor modifications. Biflavonoids were dissolved in methanol. The final concentration of methanol in the incubation mixture was 1.0% (v/v). We used these P450 probe substrates: phenacetin for CYP1A2, coumarin for CYP2A6, bupropion for CYP2B6, amodiaquine for CYP2C8, diclofenac for CYP2C9, omeprazole for CYP2C19, dextromethorphan for CYP2D6, chlorzoxazone for CYP2E1 and midazolam for CYP3A (Table 1). […] The reaction was stopped by adding 50 μL of ice-cold acetonitrile containing 7 nM trimipramine (internal standard, IS). After centrifugation at 18,000 g (5 min, 4 °C), aliquots of supernatants were analyzed by LC-MS/MS (Shimadzu LCMS 8060 system, Shimadzu, Kyoto, Japan). All microsomal incubations were conducted in triplicate. We used HLMs to determine the mechanisms and constants (Ki values) for […] A inhibition of CYP1A2, CYP2B6, CYP2C8, CYP2C9 and CYP3A. […] The substrates were used at concentrations approximately near to their respective Km values. […] The other conditions were the same as in the cytochrome P450 inhibition study. […] Phenomenex, Torrance, CA, USA) and analyzed using a Shimadzu LCMS 8060 triple-quadrupole mass spectrometer coupled with a Nexera X2 ultra high-performance liquid chromatography system (Shimadzu, Kyoto, Japan) equipped with an electrospray ionization interface. The mobile phase consisted of 0.1% formic acid in water (A) and 0.1% formic acid in acetonitrile (B). […] The flow rate was 0.2 mL/min. Electrospray ionization was performed in positive-ion mode at 4000 V or in negative-ion mode at -3500 V. […] Quantitation was conducted in selected reaction monitoring (SRM) modes with the precursor-to-product ion transition for each metabolite (Table 1 and Table 2). We analyzed the data with Shimadzu LabSolution LC-MS software. The IC50 values were calculated by WinNonlin software (Pharsight, Mountain View, CA, USA). The type of inhibition and the apparent kinetic parameters for inhibitory activity (Ki) were determined by following several criteria: visual inspection of Dixon plots, Lineweaver-Burk double reciprocal plots, and secondary plots of Lineweaver-Burk plots versus biflavonoid concentrations, the size of the sum of squares of the residuals, Akaike Information Criteria values, the S.E. and 95% confidence interval of the parameter estimates from the nonlinear regression analysis using the WinNonlin software. The models tested included competitive, competitive partial, noncompetitive, noncompetitive partial, uncompetitive, uncompetitive partial, and mixed-type inhibition.

CYP3A = CYP3A (Homo sapiens, UniProt P08684); assay: Inhibition of CYP3A-catalyzed midazolam 1'-hydroxylation in pooled human liver microsomes; assay type: in vitro ADME
Chain of CYP3A (P08684 2-503): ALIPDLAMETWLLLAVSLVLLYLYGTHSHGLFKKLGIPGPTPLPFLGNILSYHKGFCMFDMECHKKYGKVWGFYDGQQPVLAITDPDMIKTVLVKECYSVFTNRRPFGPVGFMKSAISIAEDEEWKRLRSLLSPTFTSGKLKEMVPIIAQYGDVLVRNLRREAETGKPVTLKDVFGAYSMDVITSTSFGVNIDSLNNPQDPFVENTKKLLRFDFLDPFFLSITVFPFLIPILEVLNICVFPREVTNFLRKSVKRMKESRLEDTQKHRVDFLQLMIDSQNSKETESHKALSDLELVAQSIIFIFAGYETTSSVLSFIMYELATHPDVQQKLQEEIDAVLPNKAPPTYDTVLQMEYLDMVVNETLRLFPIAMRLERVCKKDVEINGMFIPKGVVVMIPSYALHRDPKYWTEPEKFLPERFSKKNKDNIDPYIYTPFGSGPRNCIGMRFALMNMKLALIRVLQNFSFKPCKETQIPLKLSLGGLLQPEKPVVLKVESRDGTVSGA
Method: as §1

[1] = substrate bupropion 50 µM, pooled HLMs, read-out: IC50, P450 2B6
[2] = human, pooled human liver microsomes, probe midazolam (5 µM), substrate midazolam 5 µM, pooled HLMs, read-out: IC50, P450 3A

SMILES | IC50 (CYP2B6; [1]) | IC50 at 10 min (CYP3A; [2]) | IC50 at 10 min (CYP3A; human, microsomes) | other results
O=c1cc(-c2ccc(O)c(-c3c(O)cc4oc(-c5ccc(O)cc5)cc(=O)c4c3O)c2)oc2cc(O)cc(O)c12 [robustaflavone] | 5.7 µM | 1.2 µM | – | –
O=C1CC(c2cc(-c3c(O)ccc4c(=O)cc(-c5ccc(O)cc5)oc34)c(O)cc2O)Oc2cc(O)cc(O)c21 (centres unmarked) [selamariscina A] | 5.3 µM | 2.7 µM | – | Mode of Inhibition, CYP2B6 bupropion (CYP2B6; HLMs): Noncompetitive; Ki (CYP2B6; HLMs, average ± standard error, triplicate): 7.9 ± 1.1 µM; Mode of Inhibition, CYP3A midazolam (CYP3A; HLMs): Noncompetitive; Ki at 10 min (CYP3A; human, pooled human liver microsomes, probe midazolam (0.5, 2, 5 μM), HLMs, average ± standard error, triplicate): 4.5 ± 0.5 µM
CC(C)(O)c1ccccc1CC[C@@H](SCC1(CC(=O)O)CC1)c1cccc(/C=C/c2ccc3ccc(Cl)cc3n2)c1 [montelukast, reference compound] | > 50 µM | – | > 50 µM | inhibition at 10 min, 5 µM (CYP2B6; human, pooled human liver microsomes, probe bupropion, inhibitor 5 μM, pooled HLMs): 20.4%
O=c1cc(-c2ccc(O)c(-c3c(O)cc(O)c4c(=O)cc(-c5ccc(O)cc5)oc34)c2)oc2cc(O)cc(O)c12 [amentoflavone] | – | – | 1.3 µM | IC50 (CYP2B6): 7.1 µM
O=c1cc(-c2ccc(O)c(-c3c(-c4ccc(O)cc4)oc4cc(O)cc(O)c4c3=O)c2)oc2cc(O)cc(O)c12 [taiwaniaflavone] | 6.4 µM | 1.2 µM | – | –
O=c1cc(-c2ccc(O)cc2)oc2c(-c3c(O)cc(O)c4c(=O)cc(-c5ccc(O)cc5)oc34)c(O)cc(O)c12 [cupressuflavone] | 6.7 µM | 1.5 µM | – | –
